Structures are written as SMILES. Values after ≈ are worked out from the molar mass of the structure shown.

We go through three molecules from ChEMBL document CHEMBL3779770, “Synthesis, biological evaluation and molecular docking study of some novel indole and pyridine based 1,3,4-oxadiazole derivatives as potential antitubercular agents” (Bioorg Med Chem Lett, 2016).

A short description of data set [1]: Selectivity index, ratio of GI50 for human HeLa cells to MIC for active state Mycobacterium bovis BCG ATCC 35734. In kind it is toxicity, cell-based. Conditions: read-out: Selectivity Index.
The test system of data set [2] is HeLa. In words: (§1) Cytotoxicity against human HeLa cells after 72 hrs by MTT assay. In kind it is cell-based. Conditions: hela, 72 h.
A short description of data set [3]: as §1. The data set is classed as cell-based. Conditions: HeLa cells.
In data set [4] the test system is Mycobacterium tuberculosis. In words: Antitubercular activity against active state Mycobacterium tuberculosis H37Ra assessed as viable cells after 8 days by XTT reduction menadione assay. The data set is classed as functional, organism-based. The following applies: 192 h.
Data set [5] concerns Escherichia coli. In words: Antibacterial activity against Escherichia coli NCIM 2688 after 8 hrs. The following applies: NCIM 2688, 8 h. The data set is classed as functional, organism-based.
Data set [6] is described as follows: Selectivity index, ratio of GI50 for human HeLa cells to MIC for dormant state Mycobacterium bovis BCG ATCC 35734. In kind it is toxicity, cell-based. The following applies: read-out: Selectivity Index.
Data set [7] is described as follows: Selectivity index, ratio of GI50 for human PANC1 cells to MIC for dormant state Mycobacterium bovis BCG ATCC 35734. Conditions: read-out: Selectivity Index. In kind it is toxicity, cell-based, PANC-1.
Data set [8] has as its system Staphylococcus aureus. Briefly: Antibacterial activity against Staphylococcus aureus NCIM 2010 after 12 hrs. The data set is classed as functional, organism-based. Conditions: NCIM 2010, 12 h.
Data set [9] has as its system Bacillus subtilis. Briefly: Antibacterial activity against Bacillus subtilis NCIM 2079 after 12 hrs. In kind it is functional, organism-based. The following applies: NCIM 2079, 12 h.
Data set [10] concerns Pseudomonas fluorescens. In words: Antibacterial activity against Pseudomonas fluorescens NCIM 2036 after 8 hrs. In kind it is functional, organism-based. The following applies: NCIM 2036, 8 h.
A short description of data set [11]: Selectivity index, ratio of GI50 for human A549 cells to MIC for dormant state Mycobacterium bovis BCG ATCC 35734. The data set is classed as toxicity, cell-based. Conditions: read-out: Selectivity Index.
Data set [12] has as its system Mycobacterium tuberculosis. In words: Antitubercular activity against dormant state Mycobacterium tuberculosis H37Ra assessed as viable cells after 12 days by XTT reduction menadione assay. In kind it is functional, organism-based. Conditions: 288 h.
The nature of data set [13]: Selectivity index, ratio of GI50 for human PANC1 cells to MIC for active state Mycobacterium bovis BCG ATCC 35734. The data set is classed as toxicity, cell-based, PANC-1. The following applies: read-out: Selectivity Index.
Data set [14] in a line: Cytotoxicity against human PANC1 cells after 48 hrs by MTT assay. The data set is classed as cell-based, PANC-1. The following applies: for GI50 at 48 h: PANC1 cells; for GI90: panc-1, 48 h.
A short description of data set [15]: Selectivity index, ratio of GI50 for human A549 cells to MIC for active state Mycobacterium bovis BCG ATCC 35734. Conditions: read-out: Selectivity Index. In kind it is toxicity, cell-based.
For data set [16], the system named is A549. Briefly: (§2) Cytotoxicity against human A549 cells after 48 hrs by MTT assay. The data set is classed as cell-based. Conditions: a549, 48 h.
Data set [17] is described as follows: as §2. In kind it is cell-based. Conditions: A549 cells.

For `O=C(/C=C\c1ccc([N+](=O)[O-])cc1)N1N=C(c2ccncc2)OC1c1c[nH]c2ccccc12` (configuration not stated), the selectivity ratio is above 12 in [1]; above 12.7 in data set [6]; above 12.7 in data set [7]; above 12.7 in data set [11]; above 12 in data set [13]; above 12 in data set [15]. For the same molecule, the GI90 in data set [2], in [14] and in data set [16] was above 30 µg/mL throughout. Also, the GI50 at 72 h in data set [3] was above 30 µg/mL. Further, the IC50 in data set [4] was above 30 µg/mL; in data set [5], 9.46 µg/mL (≈ 21.5 µM); in data set [8], 12.7 µg/mL (≈ 28.8 µM); in data set [9], 13.5 µg/mL (≈ 30.6 µM); in data set [10], 11.9 µg/mL (≈ 27 µM); in data set [12], above 30 µg/mL. Further, the MIC in data set [4] is above 30 µg/mL; in [5], 28.2 µg/mL (≈ 64.3 µM); in data set [8], 30.6 µg/mL (≈ 69.7 µM); in [9], 31.4 µg/mL (≈ 71.6 µM); in data set [10], 29.1 µg/mL (≈ 66.1 µM); in [12], above 30 µg/mL. The GI50 at 48 h in [14] and in [17] was above 30 µg/mL in each case.

On to `O=C(/C=C\c1ccc(Cl)cc1Cl)N1N=C(c2ccncc2)OC1c1c[nH]c2ccccc12` (configuration not stated), for which the selectivity ratio was 5.68 in [1]; 5.9 in data set [6]; above 6.03 in [7]; above 6.03 in data set [11]; above 5.8 in [13]; above 5.8 in data set [15]. The GI90 in [2], in [14] and in data set [16] was above 30 µg/mL in each case. It took 29.3 µg/mL (≈ 63.3 µM) to inhibit growth in [3] by half (GI50 at 72 h). For the same molecule, the IC50 is 29.3 µg/mL (≈ 63.3 µM) in data set [4]; above 256 µg/mL in data set [5]; above 256 µg/mL in [8]; above 256 µg/mL in data set [9]; above 256 µg/mL in [10]; 27.5 µg/mL (≈ 59.4 µM) in [12]. Moreover, the MIC in data set [4] is above 30 µg/mL; in data set [5] it was above 256 µg/mL; in data set [8], above 256 µg/mL; in data set [9] it was above 256 µg/mL; in data set [10] it was above 256 µg/mL; in data set [12], above 30 µg/mL. In addition, the GI50 at 48 h in data set [14] and in [17] was above 30 µg/mL each time.

As for `O=C(/C=C\c1ccccc1[N+](=O)[O-])N1N=C(c2ccncc2)OC1c1c[nH]c2ccccc12` (configuration not stated), the selectivity ratio in data set [1] is above 29.1; in data set [6] it was above 35.3; in data set [7], above 35.3; in data set [11] it was above 35.3; in data set [13] it was above 29.1; in data set [15], above 29.1. In addition, the GI90 in [2], in [14] and in data set [16] was above 30 µg/mL each time. Moreover, in data set [3], the GI50 at 72 h was above 30 µg/mL. The IC50 in data set [4] was above 30 µg/mL; in data set [5], 18.4 µg/mL (≈ 41.8 µM); in data set [8], 21.1 µg/mL (≈ 47.9 µM); in data set [9], 24.2 µg/mL (≈ 55.2 µM); in [10], 19.2 µg/mL (≈ 43.7 µM); in [12], above 30 µg/mL. The MIC in data set [4] is above 30 µg/mL; in data set [5], above 256 µg/mL; in data set [8], above 256 µg/mL; in data set [9], above 256 µg/mL; in data set [10], above 256 µg/mL; in [12], above 30 µg/mL. The GI50 at 48 h in data set [14] and in data set [17] was above 30 µg/mL each time.
